Measured values taken from a compilation of properties of binary mixtures (doi:10.1016/j.jct.2020.106093).

Test: xn = mol fraction of the nth substance listed
Conditions: 100.9 kPa

CC(=O)[O-].CC[NH2+]CC + O
Conditions | electrical conductivity [S/m] | speed of sound [m/s] | viscosity [mPa·s]
313.15 K, x1 = 0.351 | – | – | 19.49
313.15 K, x1 = 0.708 | – | 1494 | –
313.15 K, x1 = 0.714 | – | – | 33.5
313.15 K, x1 = 0.835 | – | 1461 | –
313.15 K, x1 = 0.84 | – | – | 34
315.65 K, x1 = 0.015 | – | – | 0.904
315.65 K, x1 = 0.055 | – | – | 1.89
315.65 K, x1 = 0.24 | – | – | 11.59
315.65 K, x1 = 0.351 | – | – | 17.57
315.65 K, x1 = 0.549 | – | – | 26.3
315.65 K, x1 = 0.84 | – | – | 30.6
318.15 K, x1 = 0.015 | 4.74 | 1608 | 0.862
318.15 K, x1 = 0.054 | 8.13 | – | –
318.15 K, x1 = 0.055 | – | 1732 | 1.774
318.15 K, x1 = 0.119 | – | 1782 | 3.94
318.15 K, x1 = 0.12 | 5.91 | – | –
318.15 K, x1 = 0.168 | 4.05 | 1758 | 6.11
318.15 K, x1 = 0.24 | 2.51 | 1699 | 10.54
318.15 K, x1 = 0.35 | – | 1636 | –
318.15 K, x1 = 0.351 | – | – | 15.87
318.15 K, x1 = 0.549 | – | 1526 | 23.7
318.15 K, x1 = 0.55 | 0.767 | – | –
318.15 K, x1 = 0.708 | – | 1479 | –
318.15 K, x1 = 0.714 | 0.609 | – | 27.2
318.15 K, x1 = 0.835 | – | 1446 | –
318.15 K, x1 = 0.838 | 0.498 | – | –
318.15 K, x1 = 0.84 | – | – | 27.6
318.15 K, x1 = 0.945 | 0.476 | – | –
320.65 K, x1 = 0.015 | – | – | 0.826
320.65 K, x1 = 0.055 | – | – | 1.67
320.65 K, x1 = 0.119 | – | – | 3.65
320.65 K, x1 = 0.168 | – | – | 5.63
320.65 K, x1 = 0.24 | – | – | 9.62
320.65 K, x1 = 0.351 | – | – | 14.41
320.65 K, x1 = 0.549 | – | – | 21.5
320.65 K, x1 = 0.714 | – | – | 24.6
320.65 K, x1 = 0.84 | – | – | 25
323.15 K, x1 = 0.015 | – | 1610 | 0.795
323.15 K, x1 = 0.055 | – | 1725 | 1.576
323.15 K, x1 = 0.119 | – | 1768 | 3.4
323.15 K, x1 = 0.168 | – | 1744 | 5.21
323.15 K, x1 = 0.24 | – | 1685 | 8.81
323.15 K, x1 = 0.35 | – | 1622 | –
323.15 K, x1 = 0.351 | – | – | 13.12
323.15 K, x1 = 0.549 | – | 1512 | 19.55
323.15 K, x1 = 0.708 | – | 1464 | –
323.15 K, x1 = 0.714 | – | – | 22.3
323.15 K, x1 = 0.835 | – | 1430 | –
323.15 K, x1 = 0.84 | – | – | 22.7
325.65 K, x1 = 0.015 | – | – | 0.757
325.65 K, x1 = 0.055 | – | – | 1.489
325.65 K, x1 = 0.119 | – | – | 3.17
325.65 K, x1 = 0.168 | – | – | 4.82
325.65 K, x1 = 0.24 | – | – | 8.09
325.65 K, x1 = 0.351 | – | – | 11.97
325.65 K, x1 = 0.549 | – | – | 17.76
325.65 K, x1 = 0.714 | – | – | 20.3
325.65 K, x1 = 0.84 | – | – | 20.6
328.15 K, x1 = 0.055 | – | – | 1.411
328.15 K, x1 = 0.119 | – | – | 2.97
328.15 K, x1 = 0.168 | – | – | 4.48
328.15 K, x1 = 0.24 | – | – | 7.45
328.15 K, x1 = 0.351 | – | – | 10.96
328.15 K, x1 = 0.714 | – | – | 18.53
328.15 K, x1 = 0.84 | – | – | 18.78
330.65 K, x1 = 0.24 | – | – | 6.88
330.65 K, x1 = 0.351 | – | – | 10.06
330.65 K, x1 = 0.549 | – | – | 14.78
330.65 K, x1 = 0.714 | – | – | 16.94
330.65 K, x1 = 0.84 | – | – | 17.14
333.15 K, x1 = 0.015 | 7.37 | – | 0.666
333.15 K, x1 = 0.054 | 13.1 | – | –
333.15 K, x1 = 0.055 | – | – | 1.273
333.15 K, x1 = 0.12 | 8.77 | – | –
333.15 K, x1 = 0.168 | 5.75 | – | 3.89
333.15 K, x1 = 0.24 | 3.65 | – | 6.37
333.15 K, x1 = 0.353 | 2 | – | –
333.15 K, x1 = 0.549 | – | – | 13.57
333.15 K, x1 = 0.714 | 0.802 | – | 15.52
333.15 K, x1 = 0.838 | 0.666 | – | –
333.15 K, x1 = 0.945 | 0.65 | – | –
335.65 K, x1 = 0.015 | – | – | 0.641
335.65 K, x1 = 0.055 | – | – | 1.213
335.65 K, x1 = 0.119 | – | – | 2.45
335.65 K, x1 = 0.24 | – | – | 5.91
335.65 K, x1 = 0.351 | – | – | 8.55
335.65 K, x1 = 0.549 | – | – | 12.48
335.65 K, x1 = 0.714 | – | – | 14.25
335.65 K, x1 = 0.84 | – | – | 14.39
338.15 K, x1 = 0.015 | – | – | 0.617
338.15 K, x1 = 0.055 | – | – | 1.159
338.15 K, x1 = 0.119 | – | – | 2.31
338.15 K, x1 = 0.168 | – | – | 3.4
338.15 K, x1 = 0.24 | – | – | 5.49
338.15 K, x1 = 0.351 | – | – | 7.91
338.15 K, x1 = 0.549 | – | – | 11.5
338.15 K, x1 = 0.714 | – | – | 13.11
338.15 K, x1 = 0.84 | – | – | 13.23
340.65 K, x1 = 0.015 | – | – | 0.595
340.65 K, x1 = 0.055 | – | – | 1.108
340.65 K, x1 = 0.119 | – | – | 2.18
340.65 K, x1 = 0.24 | – | – | 5.12
340.65 K, x1 = 0.351 | – | – | 7.33
340.65 K, x1 = 0.549 | – | – | 10.62
340.65 K, x1 = 0.714 | – | – | 12.08
340.65 K, x1 = 0.84 | – | – | 12.19
343.15 K, x1 = 0.015 | – | – | 0.574
343.15 K, x1 = 0.119 | – | – | 2.06
343.15 K, x1 = 0.168 | – | – | 3
343.15 K, x1 = 0.24 | – | – | 4.78
343.15 K, x1 = 0.351 | – | – | 6.81
343.15 K, x1 = 0.549 | – | – | 9.84
343.15 K, x1 = 0.714 | – | – | 11.16
343.15 K, x1 = 0.84 | – | – | 11.24
348.15 K, x1 = 0.007 | 3.01 | – | –
348.15 K, x1 = 0.015 | 10.1 | – | –
348.15 K, x1 = 0.054 | 16.6 | – | –
348.15 K, x1 = 0.12 | 10.6 | – | –
348.15 K, x1 = 0.168 | 7.47 | – | –
348.15 K, x1 = 0.24 | 4.92 | – | –
348.15 K, x1 = 0.945 | 1.09 | – | –
363.15 K, x1 = 0.007 | 3.4 | – | –
363.15 K, x1 = 0.015 | 12.9 | – | –
363.15 K, x1 = 0.054 | 17.4 | – | –
363.15 K, x1 = 0.12 | 11.6 | – | –
363.15 K, x1 = 0.24 | 5.47 | – | –
363.15 K, x1 = 0.353 | 3.65 | – | –
363.15 K, x1 = 0.55 | 2.24 | – | –
363.15 K, x1 = 0.714 | 1.67 | – | –
363.15 K, x1 = 0.838 | 1.32 | – | –
